Measured values as given in ChEMBL document CHEMBL5143760, “Inhibitors of Transforming Growth Factor Beta Receptor 1 (TGFβr1) May Enhance the Efficacy of Several Monoclonal Antibodies as Cancer Therapy” (2022).
Calls of active or inactive are those of the source. The calls are words filed in the database; no cut-off is given here.

Legend:
[1] = system: CT26; assay: Antitumor activity against mouse CT26 cells xenografted in Balb/c mouse assessed as tumor growth delay at 30 mg/kg, po twice daily for 28 days; format: functional; conditions: time 28 day
[2] = system: MC-38; assay: Antitumor activity against mouse MC38 cells xenografted in C57BL/6 mouse assessed as inhibition of tumor growth at 30 mg/kg, po twice daily co-administered with anti-PD1-antibody at 5 mg/kg, ip twice weekly for 2 weeks; format: functional, organism-based
[3] = system: 4T1; assay: Antitumor activity against mouse 4T1 cells xenografted in Balb/cj mouse assessed as inhibition of tumor growth at 30 mg/kg, po twice daily for 21 days in presence of OXO40 monoclonal antibody relative to control; format: functional; conditions: 4T1, 504 h, time 21 day, read-out: TGI
[4] = system: 4T1; assay: Antitumor activity against mouse 4T1 cells xenografted in Balb/cj mouse assessed as inhibition of tumor growth at 30 mg/kg, po twice daily for 21 days relative to control; format: functional; conditions: 4T1, 504 h, time 21 day, read-out: TGI
[5] = system: MC-38; assay: Antitumor activity against mouse MC38 cells xenografted in C57BL/6 mouse assessed as increase in animal survival at 30 mg/kg, po twice daily co-administered with anti-PD1-antibody at 5 mg/kg, ip twice weekly for 2 weeks; format: functional, organism-based
[6] = system: CT26; assay: Antitumor activity against mouse CT26 cells xenografted in Balb/c mouse assessed as time of events at 30 mg/kg, po twice daily for 28 days; format: functional; conditions: time 28 day
[7] = system: 4T1; assay: Antitumor activity against mouse 4T1 cells xenografted in Balb/cj mouse assessed as inhibition of tumor growth at 30 mg/kg, po twice daily for 21 days in presence of 4-1BB monoclonal antibody relative to control; format: functional; conditions: 4T1, 504 h, time 21 day, read-out: TGI
[8] = system: CT26; assay: Antitumor activity against mouse CT26 cells xenografted in Balb/c mouse assessed as time of events at 30 mg/kg, po twice daily for 28 days in presence of ant-CTLA4 antibody; format: functional; conditions: time 28 day
[9] = system: CT26; assay: Antitumor activity against mouse CT26 cells xenografted in Balb/c mouse assessed as tumor growth delay at 30 mg/kg, po twice daily for 28 days in presence of ant-CTLA4 antibody; format: functional; conditions: time 28 day

CC(C)c1cnc(-c2cc(Cl)ccc2F)cc1Nc1ccncc1C(=O)NC(CO)CO [PF-06952229] was tested, and the Activity [1] was 18%, the inhibition [2] was “Active” and the inhibition in vivo at 30 mg/kg [3] was 29.5%. For the same molecule, the inhibition in vivo at 30 mg/kg [4] was 18%, the Activity [5] was “Active” and the Time [6] was 33.8 days. For the same molecule, the inhibition in vivo at 30 mg/kg [7] was 41%, the Time [8] was 59 days and the Activity [9] was 106%.
